pEC50: −log10 of the molar value. Read-outs that look alike come from different tables or passages of the source.
Legend:
[1] = target: T1, estrogen receptor alpha (ESR1) (Homo sapiens, UniProt P03372); experiment: Breast Cancer Cell ERa High Content Fluorescence Imaging Degradation Assay (Example 901); type: cell-based; conditions: MCF7 breast cancer cells, 4 hours, plateau of the maximal effect
T1 construct: endogenous in cells; host or cells: MCF7 breast cancer cells
T1 sequence (P03372 1-595): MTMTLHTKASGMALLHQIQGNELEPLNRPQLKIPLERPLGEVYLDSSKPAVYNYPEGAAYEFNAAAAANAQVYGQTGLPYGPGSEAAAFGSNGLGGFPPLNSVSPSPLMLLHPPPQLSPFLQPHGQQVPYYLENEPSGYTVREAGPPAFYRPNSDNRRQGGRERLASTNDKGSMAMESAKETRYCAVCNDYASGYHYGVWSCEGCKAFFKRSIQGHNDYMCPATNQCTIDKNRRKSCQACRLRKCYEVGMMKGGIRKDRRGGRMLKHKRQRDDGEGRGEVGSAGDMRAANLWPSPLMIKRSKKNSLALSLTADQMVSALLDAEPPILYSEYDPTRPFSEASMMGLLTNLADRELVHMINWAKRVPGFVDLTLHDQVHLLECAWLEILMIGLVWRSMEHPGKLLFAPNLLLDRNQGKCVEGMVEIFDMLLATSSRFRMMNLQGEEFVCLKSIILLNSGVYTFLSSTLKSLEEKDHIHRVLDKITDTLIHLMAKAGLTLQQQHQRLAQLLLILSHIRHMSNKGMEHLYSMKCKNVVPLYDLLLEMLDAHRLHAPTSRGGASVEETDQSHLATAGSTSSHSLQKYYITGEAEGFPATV
Experimental: MCF7 breast cancer cells were seeded on day 1 at a density of 10,000 cells per well in 384 well poly-lysine coated tissue culture plate (Greiner # T-3101-4), in 50 μL/well RPMI (phenol red free), 10% FBS (Charcoal stripped), containing L-glutamine. On day 2, compounds were prepared at 2 compound source concentrations: 100 μM and 1 μM (ultimately to give 2 overlapping titration curves), in a Labcyte low dead volume plate, 10 μL/well, and 10 μL of DMSO in designated wells for backfill, and 5 μM Fulvestrant (control compound) in designated wells. Compounds and controls were dispensed using a Labcyte Echo acoustic dispenser to dispense compounds with a predefined serial dilution (1.8×, 10 point, in duplicate) and appropriate backfill and control compounds (final total volume transferred was 417.5 nL and compound dispense volume ranges from 2.5 nL to 417.5 nL; 0.84% DMSO (v/v) final), ultimately producing a concentration range from 0.05 nM to 835 nM. Cell plates were incubated at 37° C., for 4 hours. Fixation and permeabilization were carried out using a Biotek EL406 plate washer and dispenser as follows. Cells were fixed by addition of 15 μL of 16% paraformaldehyde (Electron Microscopy Sciences #15710-S) directly to the 50 μL cell culture medium in each well using the peristaltic pump 5 μL cassette on a Biotek EL406 (final concentration of formaldehyde was 3.7% w/v). Samples were incubated 30 minutes. Well contents was aspirated and 50 μL/well of Phosphate Buffered Saline (PBS) containing 0.5% w/v bovine serum albumen, 0.5% v/v Triton X-100 (Antibody Dilution Buffer) was added to each well. Samples were incubated for 30 minutes. Well contents were aspirated and washed 3 times with 100 μL/well of PBS. Immunofluorescence staining of estrogen receptor alpha (ESR1) was carried out using a Biotek EL406 plate washer and dispenser as follows. The well supernatant was aspirated from the wells and 25 μL/well of anti-ESR1 mAb (F10) (Santa Cruz sc-8002) diluted 1:1000 in Antibody Dilution Buffer was dispensed. Samples were incubated for 2 hours at room temperature. Samples were washed 4 times with 100 μL/well of PBS. 25 uL/well of secondary antibody solution (Alexafluor 488 conjugate anti-mouse IgG (LifeTechnologies #A21202) diluted 1:1000 and Hoechst 33342 1 μg/ml diluted in Antibody Dilution Buffer) were dispensed into each well. Samples were incubated for 2 hours at room temperature. Samples were washed 3 times with 100 μL/well of PBS using a Biotek EL406. Quantitative fluorescence imaging of ESR1 was carried out using a Cellomics Arrayscan V (Thermo). Fluorescence images of the samples (Channel 1: XF53 Hoechst (DNA stain); Channel 2: XF53 FITC (ESR1 stain)) were acquired using a Cellomics VTI Arrayscan using the Bioapplication “Compartmental Analysis” using the auto-exposure (based on DMSO control wells) setting “peak target percentile” set to 25% target saturation for both channels. Channel 1 (DNA stain) was used to define the nuclear region (Circ). Measurements of “Mean_CircAvgIntCh2”, which is the Alexafluor 488 fluorescence intensity (ESR1) within the nuclear region, was measured on a per cell basis and averaged over all the measured cells. Data analysis was carried out using Genedata Screener Software, with DMSO and 5 nM Fulvestrant treated samples being used to define the 0% and 100% changes in ESR1. The “Robust Fit” method was used to define the inflexion point of curve (EC50) and the plateau of the maximal effect (Sinf). Degradation data for exemplary Formula I compounds is reported as ER-alpha MCF7 HCS Sinf(%) values in Table 1.

MCF7 cells = experiment: In vitro cell proliferation assays (Examples 902 and 903), MCF7; type: cell-based; conditions: read-out: ER-alpha MCF7 HCS (EC50)
Experimental: Efficacy of estrogen receptor modulator compounds and chemotherapeutic compounds are measured by a cell proliferation assay employing the following protocol (Mendoza et al (2002) Cancer Res. 62:5485-5488).
The CellTiter-Glo® Luminescent Cell Viability Assay is a homogeneous method to determine the number of viable cells in culture based on quantitation of the ATP present, which signals the presence of metabolically active cells. The CellTiter-Glo® Assay is designed for use with multiwell plate formats, making it ideal for automated high-throughput screening (HTS), cell proliferation and cytotoxicity assays. The homogeneous assay procedure involves adding a single reagent (CellTiter-Glo® Reagent) directly to cells cultured in serum-supplemented medium. Cell washing, removal of medium or multiple pipetting steps are not required. The Cell Titer-Glo® Luminescent Cell Viability Assay, including reagents and protocol are commercially available (Promega Corp., Madison, Wis., Technical Bulletin TB288).
The assay assesses the ability of compounds to enter cells and inhibit cell proliferation. The assay principle is based on the determination of the number of viable cells present by quantitating the ATP present in a homogenous assay where addition of the Cell TiterGlo® reagent results in cell lysis and generation of a luminescent signal through the luciferase reaction. The luminescent signal is proportional to the amount of ATP present.
Procedure: Day 1—Seed Cell Plates (384-well black, clear bottom, microclear, TC plates with lid from Falcon #353962), Harvest cells, Seed cells at 1000 cells per 54 μl per well into 384 well Cell Plates for 3 days assay. Cell Culture Medium: RPMI or DMEM high glucose, 10% Fetal Bovine Serum, 2 mM L-Glutamine, P/S. Incubate 0/N (overnight) at 37° C., 5% CO2.
Day 2—Add Drug to Cells, Compound Dilution, DMSO Plates (serial 1:2 for 9 points). Add 20 μl of compound at 10 mM in the 2nd column of 96 well plate. Perform serial 1:2 across the plate (10 μl+20 μl 100% DMSO) for a total of 9 points using Precision Media Plates 96-well conical bottom polypropylene plates from Nunc (cat.#249946) (1:50 dilution). Add 147 μl of Media into all wells. Transfer 3 μl of DMSO+compound from each well in the DMSO Plate to each corresponding well on Media Plate using Rapidplate® (Caliper, a Perkin-Elmer Co.). For 2 drug combination studies, transfer one drug 1.5 μl of DMSO+compound from each well in the DMSO Plate to each corresponding well on Media Plate using Rapidplate. Then, transfer another drug 1.5 μl to the medium plate.
Drug Addition to Cells, Cell Plate (1:10 dilution): Add 6 μl of media+compound directly to cells (54 μl of media on the cells already). Incubate 3 days at 37° C., 5% CO2 in an incubator that will not be opened often.
Day 5—Develop Plates, Thaw Cell Titer Glo Buffer at room temperature: Remove Cell Plates from 37° C. and equilibrate to room temperature for about 30 minutes. Add Cell Titer-Glo® Buffer to Cell Titer-Glo® Substrate (bottle to bottle). Add 30 μl Cell Titer-Glo® Reagent (Promega cat.# G7572) to each well of cells. Place on plate shaker for about 30 minutes. Read luminescence on Analyst HT Plate Reader (half second per well).
Cell viability assays and combination assays: Cells were seeded at 1000-2000 cells/well in 384-well plates for 16 h. On day two, nine serial 1:2 compound dilutions were made in DMSO in a 96 well plate. The compounds were further diluted into growth media using a Rapidplate® robot (Zymark Corp., Hopkinton, Mass.). The diluted compounds were then added to quadruplicate wells in 384-well cell plates and incubated at 37° C. and 5% CO2. After 4 days, relative numbers of viable cells were measured by luminescence using Cell Titer-Glo® (Promega) according to the manufacturer's instructions and read on a Wallac Multilabel Reader® (PerkinElmer, Foster City). EC50 values were calculated using Prism® 4.0 software (GraphPad, San Diego). […]

[2] = Table 1a, DMSO and Fulvestrant define 0% and 100% changes in ESR1

SMILES | ER-alpha MCF7 HCS (S inf) [1, 2] [%] | pEC50 (MCF7 cells; Homo sapiens, MCF7, Table 1a) | ER-alpha MCF7 HCS (S inf) ([1]; Table 1b) [%] | pEC50 (MCF7 cells; Homo sapiens, MCF7, Table 1b) | pEC50 (MCF7 cells; Table 1b)
C[C@@H]1Cc2c([nH]c3c(F)cccc23)[C@@H](c2c(F)cc([C@H](O)C3CN(CCCF)C3)cc2F)N1CC(F)(F)CO (single isomer, unassigned) [Compound 133] | −95.88 | 10.08 | – | – | –
C[C@@H]1Cc2c([nH]c3c(F)cccc23)[C@@H](c2c(F)cc([C@@H](O)C3CN(CCCF)C3)cc2F)N1CC(F)(F)CO (single isomer, unassigned) [Compound 134] | −94.44 | 9.86 | – | – | –
C[C@@H]1Cc2c([nH]c3ccccc23)[C@@H](c2c(F)cc([C@@H](O)C3CN(CCCF)C3)cc2F)N1CC(F)(F)CO (single isomer, unassigned) [Compound 135] | −99.46 | 10.41 | – | – | –
C[C@@H]1Cc2c([nH]c3ccccc23)[C@@H](c2c(F)cc([C@H](O)C3CN(CCCF)C3)cc2F)N1CC(F)(F)CO (single isomer, unassigned) [Compound 136] | −99.81 | 10.18 | – | – | –
C[C@@H]1Cc2c([nH]c3ccccc23)[C@@H](c2c(F)cc([C@H](O)C3CN(CCCF)C3)cc2F)N1C[C@@H](F)CO (single isomer, unassigned) [Compound 137] | −100.96 | 10.13 | – | – | –
C[C@@H]1Cc2c([nH]c3ccccc23)[C@@H](c2c(F)cc([C@H](F)C3CN(CCCF)C3)cc2F)N1CC(C)(C)F [Compound 103, (1R,3R)-1-(2,6-difluoro-4-((R)-fluoro(1-(3-fluoropropyl)azetidin-3-yl)methyl)phenyl)-2-(2-fluoro-2-methylpropyl)-3-methyl-2,3,4,9-tetrahydro-1H-pyrido[3,4-b]indole] | −94.25 | 9.92 | – | – | –
C[C@@H]1Cc2c([nH]c3ccccc23)[C@@H](c2c(F)cc(C(O)C3CN(CCCF)C3)cc2F)N1CC(F)(F)CO (stereo partly drawn) [Compound 106, 3-((1R,3R)-1-(2,6-difluoro-4-((1-(3-fluoropropyl)azetidin-3-yl)(hydroxy)methyl)phenyl)-3-methyl-1,3,4,9-tetrahydro-2H-pyrido[3,4-b]indol-2-yl)-2,2-difluoropropan-1-ol] | −98.3 | 10.46 | – | – | –

Continued, values first:

ER-alpha MCF7 HCS (S inf) [1, 2] [%] | pEC50 (MCF7 cells; Homo sapiens, MCF7, Table 1a) | ER-alpha MCF7 HCS (S inf) ([1]; Table 1b) [%] | pEC50 (MCF7 cells; Homo sapiens, MCF7, Table 1b) | pEC50 (MCF7 cells; Table 1b) | SMILES
−97.67 | 9.56 | – | – | – | C[C@@H]1Cc2c([nH]c3ccccc23)[C@@H](c2c(F)cc([C@@H](O)C3CN(CCCF)C3)cc2F)N1C[C@@H](F)CO (single isomer, unassigned) [Compound 138]
−95.81 | 9.00 | – | – | – | C[C@@H]1Cc2c([nH]c3ccccc23)[C@@H](c2c(F)cc([C@H](O)C3CN(CCCF)C3)cc2F)N1C[C@H](F)CO (single isomer, unassigned) [Compound 140]
−100 | 10.19 | – | – | – | C[C@@H]1Cc2c([nH]c3cc(F)ccc23)[C@@H](c2c(F)cc([C@H](O)C3CN(CCCF)C3)cc2F)N1CC(F)(F)CO (single isomer, unassigned) [Compound 142]
– | – | −102 | 10.26 | – | C[C@@H]1Cc2c([nH]c3ccccc23)[C@@H](c2c(F)cc([C@H](F)C3CN(CCCF)C3)cc2F)N1C[C@@H](F)CO (single isomer, unassigned) [Compound 156]
– | – | −100 | 10.11 | – | C[C@@H]1Cc2c([nH]c3ccccc23)[C@@H](c2c(F)cc([C@@H](F)C3CN(CCCF)C3)cc2F)N1C[C@@H](F)CO (single isomer, unassigned) [Compound 157]
– | – | −101 | – | 10.49 | C[C@@H]1Cc2c([nH]c3ccccc23)[C@@H](c2c(F)cc([C@@H](O)C3CN(CCCF)C3)cc2F)N1CC(F)CF (stereo in doubt) [Compound 160, (S)-(4-((1R,3R)-2-((R)-2,3-difluoropropyl)-3-methyl-2,3,4,9-tetrahydro-1H-pyrido[3,4-b]indol-1-yl)-3,5-difluorophenyl)(1-(3-fluoropropyl)azetidin-3-yl)methanol]

Source: patent US20170362228A1, “TETRAHYDRO-PYRIDO[3,4-b]INDOLE ESTROGEN RECEPTOR MODULATORS AND USES THEREOF” (Genentech, Inc., priority 2016, published 2017)
